Experimental findings from ChEMBL document CHEMBL4825781, “Role of Fluorination in the Histone Deacetylase 6 (HDAC6) Selectivity of Benzohydroxamate-Based Inhibitors” (ACS Med Chem Lett, 2021) are described below.

One assay addresses Histone deacetylase 3 (Homo sapiens, UniProt O15379). Nature of the assay: Inhibition of recombinant human C-terminal His-tagged HDAC3 (1 to 428 residues) expressed in Sf9 insect cells using Fluor de Lys deacetylase or Fluor de Lys Green deacetylase substrate by fluorescent microplate reader assay.
For a further assay, the target named is T1, Histone deacetylase 8 (Homo sapiens, UniProt Q9BY41).
T1 sequence (Q9BY41 whole entry): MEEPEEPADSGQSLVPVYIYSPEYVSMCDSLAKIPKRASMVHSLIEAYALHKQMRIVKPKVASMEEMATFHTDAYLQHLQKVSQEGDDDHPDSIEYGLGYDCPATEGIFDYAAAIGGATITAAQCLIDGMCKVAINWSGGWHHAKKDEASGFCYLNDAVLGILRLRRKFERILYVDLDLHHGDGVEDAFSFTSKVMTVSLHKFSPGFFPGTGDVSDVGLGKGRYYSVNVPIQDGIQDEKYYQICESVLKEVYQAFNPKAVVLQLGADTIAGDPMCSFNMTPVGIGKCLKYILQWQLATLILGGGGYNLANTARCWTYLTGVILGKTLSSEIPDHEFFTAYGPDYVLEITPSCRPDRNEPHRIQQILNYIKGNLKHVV
Nature of the assay: Inhibition of recombinant human full length C-terminal His-tagged HDAC8 expressed in baculovirus expression system using Fluor de Lys deacetylase or Fluor de Lys Green deacetylase substrate by fluorescent microplate reader assay.

The target in assay [1] is T2, Polyamine deacetylase HDAC10 (Homo sapiens, UniProt Q969S8).
T2 sequence (Q969S8 whole entry): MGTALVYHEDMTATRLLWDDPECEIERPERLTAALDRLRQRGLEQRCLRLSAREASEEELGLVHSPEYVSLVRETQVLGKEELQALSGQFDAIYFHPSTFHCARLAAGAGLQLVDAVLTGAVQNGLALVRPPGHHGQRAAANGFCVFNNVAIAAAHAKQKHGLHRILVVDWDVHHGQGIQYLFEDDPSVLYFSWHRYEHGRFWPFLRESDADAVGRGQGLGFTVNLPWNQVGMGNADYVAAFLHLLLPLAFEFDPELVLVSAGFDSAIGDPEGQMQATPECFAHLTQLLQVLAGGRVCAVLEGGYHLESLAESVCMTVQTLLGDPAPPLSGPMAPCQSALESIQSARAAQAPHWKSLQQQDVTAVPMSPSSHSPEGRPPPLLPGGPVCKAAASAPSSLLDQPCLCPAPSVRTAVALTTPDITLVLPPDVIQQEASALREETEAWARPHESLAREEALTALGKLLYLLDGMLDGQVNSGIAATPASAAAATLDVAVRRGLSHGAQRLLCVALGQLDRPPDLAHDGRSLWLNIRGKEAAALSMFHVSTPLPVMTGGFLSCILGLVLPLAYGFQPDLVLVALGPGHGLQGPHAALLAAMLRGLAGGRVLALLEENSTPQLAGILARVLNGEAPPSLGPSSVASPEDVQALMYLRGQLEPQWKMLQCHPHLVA
Put plainly: Inhibition of recombinant human N-terminal FLAG-tagged HDAC10 (1 to 613 residues) expressed in Sf9 insect cells using Fluor de Lys deacetylase or Fluor de Lys Green deacetylase substrate by fluorescent microplate reader assay.

In a further assay the target is Histone deacetylase 9 (Homo sapiens, UniProt Q9UKV0). Nature of the assay: Inhibition of recombinant human C-terminal His-tagged HDAC9 (604 to 1066 residues) expressed in baculovirus expression system using Nepsilon-Trifluoroacetyl L-lysine substrate by fluorescent microplate reader assay.
Chain of Histone deacetylase 9 (Q9UKV0 whole entry, the tested form may be a part): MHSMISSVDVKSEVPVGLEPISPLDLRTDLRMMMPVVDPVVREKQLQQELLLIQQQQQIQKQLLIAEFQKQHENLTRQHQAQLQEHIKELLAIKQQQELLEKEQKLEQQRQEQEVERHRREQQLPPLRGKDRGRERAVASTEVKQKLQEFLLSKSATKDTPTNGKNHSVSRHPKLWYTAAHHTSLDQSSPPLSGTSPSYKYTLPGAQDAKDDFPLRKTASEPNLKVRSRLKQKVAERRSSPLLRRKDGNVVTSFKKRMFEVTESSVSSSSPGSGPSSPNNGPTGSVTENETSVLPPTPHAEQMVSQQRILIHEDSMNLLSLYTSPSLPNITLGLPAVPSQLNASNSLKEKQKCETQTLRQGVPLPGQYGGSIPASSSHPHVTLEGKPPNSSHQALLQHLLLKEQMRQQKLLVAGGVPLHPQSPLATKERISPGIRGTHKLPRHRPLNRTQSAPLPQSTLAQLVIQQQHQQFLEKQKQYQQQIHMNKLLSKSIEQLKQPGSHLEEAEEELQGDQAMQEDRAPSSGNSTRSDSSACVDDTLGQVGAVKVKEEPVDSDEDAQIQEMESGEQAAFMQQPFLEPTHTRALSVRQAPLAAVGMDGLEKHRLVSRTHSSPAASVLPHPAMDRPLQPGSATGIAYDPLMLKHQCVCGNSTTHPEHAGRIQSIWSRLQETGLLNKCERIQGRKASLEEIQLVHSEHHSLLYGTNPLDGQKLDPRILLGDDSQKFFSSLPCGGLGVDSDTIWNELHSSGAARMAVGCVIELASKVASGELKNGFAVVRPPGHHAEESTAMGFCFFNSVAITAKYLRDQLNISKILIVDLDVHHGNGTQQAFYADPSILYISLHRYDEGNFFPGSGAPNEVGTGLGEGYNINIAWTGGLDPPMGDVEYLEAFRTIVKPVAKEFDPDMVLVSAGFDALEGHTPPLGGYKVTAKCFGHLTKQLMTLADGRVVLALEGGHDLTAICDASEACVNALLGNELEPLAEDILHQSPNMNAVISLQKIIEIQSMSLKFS
Another assay has as its target T3, Histone deacetylase 11 (Homo sapiens, UniProt Q96DB2).
T3 sequence (Q96DB2 whole entry): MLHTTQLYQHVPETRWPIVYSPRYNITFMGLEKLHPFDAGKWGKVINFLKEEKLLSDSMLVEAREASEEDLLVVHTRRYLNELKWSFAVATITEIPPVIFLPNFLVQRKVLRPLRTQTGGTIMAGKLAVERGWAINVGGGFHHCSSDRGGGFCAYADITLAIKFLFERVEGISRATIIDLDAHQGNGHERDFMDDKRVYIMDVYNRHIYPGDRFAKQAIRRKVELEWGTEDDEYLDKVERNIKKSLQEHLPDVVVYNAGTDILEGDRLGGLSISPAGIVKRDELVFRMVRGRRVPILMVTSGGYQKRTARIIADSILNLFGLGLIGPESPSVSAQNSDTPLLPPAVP
Put plainly: Inhibition of recombinant human N-terminal His-tagged HDAC11 expressed in baculovirus expression system using Fluor de Lys deacetylase or Fluor de Lys Green deacetylase substrate by fluorescent microplate reader assay.

A further assay deals with Histone deacetylase 4 (Homo sapiens, UniProt P56524). Put plainly: Inhibition of recombinant human N-terminal GST-tagged and C-terminal His-tagged HDAC4 (627 to 1084 residues) expressed in Sf9 insect cells using Nepsilon-Trifluoroacetyl L-lysine as substrate by fluorescent microplate reader assay.
Chain of Histone deacetylase 4 (P56524 whole entry, the tested form may be a part): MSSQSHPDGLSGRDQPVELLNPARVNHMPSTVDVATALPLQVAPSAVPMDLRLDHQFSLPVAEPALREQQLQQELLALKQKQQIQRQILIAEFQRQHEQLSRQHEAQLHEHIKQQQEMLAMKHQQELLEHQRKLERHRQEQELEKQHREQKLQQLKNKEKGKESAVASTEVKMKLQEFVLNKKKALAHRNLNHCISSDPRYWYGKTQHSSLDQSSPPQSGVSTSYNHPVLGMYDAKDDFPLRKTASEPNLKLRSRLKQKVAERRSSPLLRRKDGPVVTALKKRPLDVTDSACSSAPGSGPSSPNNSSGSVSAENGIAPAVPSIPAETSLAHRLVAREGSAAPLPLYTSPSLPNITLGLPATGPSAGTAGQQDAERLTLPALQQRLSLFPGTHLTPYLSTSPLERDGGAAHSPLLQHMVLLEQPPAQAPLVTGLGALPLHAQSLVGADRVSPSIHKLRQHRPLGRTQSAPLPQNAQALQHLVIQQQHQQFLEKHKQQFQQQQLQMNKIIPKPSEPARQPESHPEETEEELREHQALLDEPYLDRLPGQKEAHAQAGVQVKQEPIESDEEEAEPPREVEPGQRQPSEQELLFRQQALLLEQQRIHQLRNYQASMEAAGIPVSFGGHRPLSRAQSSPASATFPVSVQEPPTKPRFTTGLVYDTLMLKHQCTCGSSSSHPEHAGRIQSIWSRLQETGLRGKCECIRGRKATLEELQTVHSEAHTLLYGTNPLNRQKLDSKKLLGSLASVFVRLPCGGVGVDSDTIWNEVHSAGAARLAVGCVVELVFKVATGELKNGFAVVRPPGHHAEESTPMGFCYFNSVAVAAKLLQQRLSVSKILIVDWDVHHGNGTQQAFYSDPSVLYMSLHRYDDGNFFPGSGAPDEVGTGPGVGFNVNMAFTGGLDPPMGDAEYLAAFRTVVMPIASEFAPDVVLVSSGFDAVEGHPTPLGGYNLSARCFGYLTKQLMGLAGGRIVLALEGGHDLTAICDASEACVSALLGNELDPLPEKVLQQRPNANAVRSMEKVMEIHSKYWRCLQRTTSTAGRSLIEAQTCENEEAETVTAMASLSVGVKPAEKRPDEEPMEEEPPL
In another assay the target is Histone deacetylase 2 (Homo sapiens, UniProt Q92769). Put plainly: Inhibition of recombinant human C-terminal His-tagged HDAC2 (1 to 488 residues) expressed in Sf9 insect cells using Fluor de Lys deacetylase or Fluor de Lys Green deacetylase substrate by fluorescent microplate reader assay.
Chain of Histone deacetylase 2 (Q92769 whole entry, the tested form may be a part): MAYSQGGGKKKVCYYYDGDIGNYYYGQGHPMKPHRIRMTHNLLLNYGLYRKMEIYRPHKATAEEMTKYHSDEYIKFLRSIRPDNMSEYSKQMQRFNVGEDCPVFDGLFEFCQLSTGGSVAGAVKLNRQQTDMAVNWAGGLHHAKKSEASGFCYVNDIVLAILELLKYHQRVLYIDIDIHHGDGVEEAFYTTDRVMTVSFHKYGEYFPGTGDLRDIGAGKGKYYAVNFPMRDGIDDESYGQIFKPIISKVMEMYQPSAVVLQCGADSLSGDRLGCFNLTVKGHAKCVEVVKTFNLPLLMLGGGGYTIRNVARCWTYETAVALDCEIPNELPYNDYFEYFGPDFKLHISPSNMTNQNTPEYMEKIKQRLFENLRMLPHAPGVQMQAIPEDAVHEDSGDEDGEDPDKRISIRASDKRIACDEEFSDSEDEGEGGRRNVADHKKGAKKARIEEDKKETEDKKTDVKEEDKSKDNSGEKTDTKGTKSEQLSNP
The target of the next assay is Histone deacetylase 1 (Homo sapiens, UniProt Q13547). Nature of the assay: Inhibition of recombinant human C-terminal His-tagged HDAC1 expressed in Sf9 insect cells using Fluor de Lys deacetylase or Fluor de Lys Green deacetylase as substrate by fluorescent microplate reader assay.
Chain of Histone deacetylase 1 (Q13547 whole entry): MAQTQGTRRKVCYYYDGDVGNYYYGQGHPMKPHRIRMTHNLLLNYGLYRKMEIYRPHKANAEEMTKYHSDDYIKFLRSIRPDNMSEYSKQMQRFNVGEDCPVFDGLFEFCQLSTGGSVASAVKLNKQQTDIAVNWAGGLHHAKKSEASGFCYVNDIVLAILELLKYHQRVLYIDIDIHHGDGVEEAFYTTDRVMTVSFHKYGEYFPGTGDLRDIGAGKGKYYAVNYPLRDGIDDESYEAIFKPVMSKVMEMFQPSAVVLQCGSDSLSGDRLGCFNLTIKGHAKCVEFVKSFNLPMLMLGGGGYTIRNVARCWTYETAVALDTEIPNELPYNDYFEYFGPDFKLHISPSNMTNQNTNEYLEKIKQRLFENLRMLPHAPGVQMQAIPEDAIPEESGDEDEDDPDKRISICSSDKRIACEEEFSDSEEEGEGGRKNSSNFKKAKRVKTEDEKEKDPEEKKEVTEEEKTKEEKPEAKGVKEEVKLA
The target in another assay is Histone deacetylase 5 (Homo sapiens, UniProt Q9UQL6). Put plainly: Inhibition of recombinant human ful length N-terminal GST-tagged HDAC5 expressed in baculovirus expression system using Nepsilon-Trifluoroacetyl L-lysine as substrate by fluorescent microplate reader assay.
Chain of Histone deacetylase 5 (Q9UQL6 whole entry): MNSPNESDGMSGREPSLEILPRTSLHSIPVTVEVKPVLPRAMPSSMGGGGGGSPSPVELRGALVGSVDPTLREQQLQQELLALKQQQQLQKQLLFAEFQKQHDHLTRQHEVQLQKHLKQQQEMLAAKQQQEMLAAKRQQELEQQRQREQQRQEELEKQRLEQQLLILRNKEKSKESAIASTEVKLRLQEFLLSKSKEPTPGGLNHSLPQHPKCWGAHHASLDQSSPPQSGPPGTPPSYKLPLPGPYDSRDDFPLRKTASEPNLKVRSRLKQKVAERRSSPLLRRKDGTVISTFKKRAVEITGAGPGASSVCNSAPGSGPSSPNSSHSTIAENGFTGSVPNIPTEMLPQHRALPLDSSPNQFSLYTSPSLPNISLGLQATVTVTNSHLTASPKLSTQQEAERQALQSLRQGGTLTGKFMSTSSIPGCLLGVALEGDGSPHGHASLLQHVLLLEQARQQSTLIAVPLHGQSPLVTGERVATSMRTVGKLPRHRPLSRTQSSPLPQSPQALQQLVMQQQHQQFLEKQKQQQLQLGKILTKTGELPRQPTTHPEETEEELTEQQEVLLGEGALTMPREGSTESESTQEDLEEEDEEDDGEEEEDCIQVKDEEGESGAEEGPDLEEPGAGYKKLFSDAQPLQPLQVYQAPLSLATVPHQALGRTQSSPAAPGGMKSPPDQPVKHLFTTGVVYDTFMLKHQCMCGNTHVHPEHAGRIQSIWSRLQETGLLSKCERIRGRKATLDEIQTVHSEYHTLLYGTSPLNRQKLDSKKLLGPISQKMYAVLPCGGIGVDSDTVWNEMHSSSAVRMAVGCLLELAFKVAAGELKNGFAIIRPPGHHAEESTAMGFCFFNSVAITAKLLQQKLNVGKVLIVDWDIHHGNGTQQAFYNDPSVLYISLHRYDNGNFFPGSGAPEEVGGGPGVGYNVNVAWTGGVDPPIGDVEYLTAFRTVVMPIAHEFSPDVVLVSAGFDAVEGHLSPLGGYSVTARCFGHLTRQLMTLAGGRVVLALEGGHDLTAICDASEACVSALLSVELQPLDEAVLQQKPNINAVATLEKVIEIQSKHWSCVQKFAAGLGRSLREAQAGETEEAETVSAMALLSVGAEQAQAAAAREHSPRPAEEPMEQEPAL
The species named for a further assay is Homo sapiens. Nature of the assay: Selectivity index, ratio of IC50 for recombinant human C-terminal His-tagged HDAC1 expressed in Sf9 cells to IC50 for recombinant human full length N-terminal GST-tagged HDAC6 expressed in Sf9 cells.
The target of another assay is T4, Histone deacetylase 7 (Homo sapiens, UniProt Q8WUI4).
T4 sequence (Q8WUI4 whole entry): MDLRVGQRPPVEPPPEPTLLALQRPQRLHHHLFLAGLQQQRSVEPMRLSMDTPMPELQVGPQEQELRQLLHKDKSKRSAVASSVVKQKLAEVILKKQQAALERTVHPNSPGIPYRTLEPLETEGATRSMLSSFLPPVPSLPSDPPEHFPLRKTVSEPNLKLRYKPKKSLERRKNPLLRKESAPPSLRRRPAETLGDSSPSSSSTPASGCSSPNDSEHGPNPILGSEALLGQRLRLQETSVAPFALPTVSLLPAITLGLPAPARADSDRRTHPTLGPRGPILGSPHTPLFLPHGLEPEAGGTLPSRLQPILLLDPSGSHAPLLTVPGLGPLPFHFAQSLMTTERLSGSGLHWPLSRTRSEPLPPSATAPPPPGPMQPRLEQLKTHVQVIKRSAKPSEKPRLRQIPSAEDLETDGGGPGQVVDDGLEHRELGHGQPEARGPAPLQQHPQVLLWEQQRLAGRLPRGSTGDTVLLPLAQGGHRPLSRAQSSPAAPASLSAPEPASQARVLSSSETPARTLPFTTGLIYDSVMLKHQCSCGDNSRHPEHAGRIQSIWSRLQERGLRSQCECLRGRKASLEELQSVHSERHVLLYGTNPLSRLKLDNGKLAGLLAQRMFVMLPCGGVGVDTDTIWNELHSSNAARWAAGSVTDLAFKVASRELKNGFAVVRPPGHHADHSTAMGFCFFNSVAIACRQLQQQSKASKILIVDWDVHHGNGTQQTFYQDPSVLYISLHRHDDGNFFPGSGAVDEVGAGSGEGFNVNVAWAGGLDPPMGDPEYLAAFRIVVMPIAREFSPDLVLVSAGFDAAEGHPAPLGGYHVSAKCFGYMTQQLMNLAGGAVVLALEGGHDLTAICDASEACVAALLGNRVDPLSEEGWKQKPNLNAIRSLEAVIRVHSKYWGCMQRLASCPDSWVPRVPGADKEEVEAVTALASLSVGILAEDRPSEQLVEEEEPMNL
Put plainly: Inhibition of recombinant human N-terminal GST-tagged HDAC7 (518 to end residues) expressed in baculovirus expression system using Nepsilon-Trifluoroacetyl L-lysine as substrate by fluorescent microplate reader assay.

Chain of Histone deacetylase 3 (O15379 whole entry, the tested form may be a part): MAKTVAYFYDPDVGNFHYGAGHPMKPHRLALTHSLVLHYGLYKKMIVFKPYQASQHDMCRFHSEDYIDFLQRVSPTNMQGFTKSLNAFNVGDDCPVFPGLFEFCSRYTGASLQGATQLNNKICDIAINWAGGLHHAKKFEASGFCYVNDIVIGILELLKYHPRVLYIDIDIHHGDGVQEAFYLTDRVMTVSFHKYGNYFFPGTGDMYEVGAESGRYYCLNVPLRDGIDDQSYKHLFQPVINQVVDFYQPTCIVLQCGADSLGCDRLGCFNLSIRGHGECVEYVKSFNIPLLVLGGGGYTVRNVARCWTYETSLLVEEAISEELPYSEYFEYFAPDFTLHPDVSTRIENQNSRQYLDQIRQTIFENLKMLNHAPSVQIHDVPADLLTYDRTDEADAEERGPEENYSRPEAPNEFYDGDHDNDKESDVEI

For `O=C(NO)c1cc(F)c(Cn2nnc(-c3ncccn3)n2)c(F)c1`, the IC50 at Histone deacetylase 3 was determined as 5.18 µM; on Histone deacetylase 8 it was 0.504 µM; in [1], 9.08 µM; at Histone deacetylase 9, 0.48 µM; on Histone deacetylase 11, 3.07 µM; at Histone deacetylase 4, 0.562 µM. In addition, the IC50 is 17.2 µM at Histone deacetylase 2, 3.96 µM on Histone deacetylase 1 and 2.79 µM at Histone deacetylase 5.

With `O=C(NO)c1cc(F)c(Cn2nnnc2-c2cccs2)c(F)c1`, the IC50 on Histone deacetylase 3 was 6.04 µM; in assay [1], 8.74 µM; at Histone deacetylase 11 it was 5.66 µM; on Histone deacetylase 2 it was 9.23 µM.

`O=C(NO)c1ccc(Cn2nnc(-c3ncccn3)n2)cc1`: the IC50 on Histone deacetylase 3 was 0.884 µM; at Histone deacetylase 8, 0.32 µM; in assay [1], 0.474 µM; on Histone deacetylase 9 it was 1.7 µM; on Histone deacetylase 11 it was 0.762 µM; at Histone deacetylase 4 it was 4.6 µM. Moreover, the IC50 was 3.01 µM at Histone deacetylase 2, 1.01 µM at Histone deacetylase 7, 0.93 µM at Histone deacetylase 1 and 5 µM on Histone deacetylase 5. In the assay filed under Homo sapiens, the Selectivity Index amounted to 733.
